In ChEMBL document CHEMBL1145893, “Three-dimensional quantitative structure-activity relationship analysis of propafenone-type multidrug resistance modulators: influence of variable selection on test set predictivity” (J Med Chem, 2003) one finds IC50 data, which are given here for 70 molecules.

As a reminder, the IC50 is the midpoint of a concentration-inhibition curve.

The test system of this assay is CCRF-CEM/VCR-1000. The experiment in a line: In vitro multi drug resistance (MDR) reversal inhibitory activity against CCRF-CEM/VCR-1000 cell line. Type of assay: functional, cell-based. The conditions noted are these: Homo sapiens.
For the molecule `CN(C)CC(O)COc1ccccc1C(=O)CCc1ccccc1` (stereo not given), the 50% inhibitory concentration (IC50) stood at 2640 nM.

As for `CCC(=O)c1ccccc1OCC(O)CN1CCC(O)(c2ccccc2)CC1` (stereo not given), the IC50 came to 300 nM. The result for `COC(CCc1ccccc1)c1ccccc1OCC(O)CN1CCN(c2ccc(F)cc2)CC1` (stereo not given) reads 230 nM; that for `OC(COc1ccccc1C(O)CCc1ccccc1)CN1CCN(c2ccc(F)cc2)CC1` (stereo not given), 670 nM.

Turning to `CCC(=O)c1ccccc1OCC(O)CN1CCCCC1` (stereo not given), the IC50 is 6840 nM. The result for `O=C(CCc1ccccc1)c1ccccc1OCC(O)CN1CCCCC1` (stereo not given) reads 680 nM; that for `O=C(CCc1ccccc1)c1ccccc1OCC(O)CN1CCN(Cc2ccccc2)CC1` (stereo not given), 380 nM. On to `COc1ccc(N2CCN(CC(O)COc3ccccc3C(=O)CCc3ccccc3)CC2)cc1` (stereo not given), for which the IC50 was determined as 180 nM. The result for `O=C(c1ccccc1)c1ccccc1OCC(O)CN1CCN(c2ccc(F)cc2)CC1` (stereo not given) reads 420 nM. The result for `O=C(CCc1ccccc1)c1cc(O)ccc1OCC(O)CN1CCCCC1` (stereo not given) reads 2300 nM; that for `CC(=O)c1ccc(OCC(O)CN2CCN(c3ccc(F)cc3)CC2)cc1` (stereo not given), 11900 nM.

Regarding `O=C(CCc1ccccc1)c1ccccc1OCC(O)CNCCC(c1ccccc1)c1ccccc1` (stereo not given), the half-inhibitory concentration (IC50) turned out to be 720 nM. As for `OC(COc1ccccc1C(O)CCc1ccccc1)CN1CCOCC1` (stereo not given), the IC50 worked out at 9540 nM.

As for `O=C(CCc1ccccc1)c1cccc(OCC(O)CN2CCN(c3ccc(F)cc3)CC2)c1` (stereo not given), the half-maximal inhibitory concentration (IC50) was determined as 1120 nM. As for `CCCNCC(O)c1oc2ccccc2c1CCc1ccccc1` (stereo not given), the concentration for half-maximal inhibition (IC50) is 58100 nM. The result for `O=C(CCc1cccc2ccccc12)c1ccccc1OCC(O)CNCCC(c1ccccc1)c1ccccc1` (stereo not given) reads 720 nM; that for `CCN(CC)CC(O)COc1ccccc1C(=O)CCc1ccccc1` (stereo not given), 910 nM. Take `CCCN(C)CC(O)COc1ccccc1C(=O)CCc1ccccc1` (stereo not given): the IC50 was found to be 490 nM. The value for `CCCNCCc1oc2ccccc2c1CCc1ccccc1` was 8560 nM; that for `Cc1ccccc1N1CCN(CC(O)COc2ccccc2C(=O)CCc2ccccc2)CC1` (stereo not given) was 50 nM; that for `COC(CCc1ccccc1)c1ccccc1OCC(O)CNCCC(c1ccccc1)c1ccccc1` (stereo not given) was 750 nM.

As to `CC(=O)c1ccc(OCC(O)CN2CCOCC2)cc1` (stereo not given), the IC50 worked out at 302000 nM. The result for `O=C(CCc1ccccc1)c1ccccc1OCC(O)CN1CCN(c2ccc(F)cc2)CC1` (stereo not given) reads 140 nM; that for `O=C(CCc1ccccc1)c1cc(O)ccc1OCC(O)CN1CCN(Cc2ccccc2)CC1` (stereo not given), 530 nM; that for `O=C(CCc1ccccc1)c1ccccc1OCC(O)CN1CCOCC1` (stereo not given), 3750 nM. Consider `CCCNCC(O)COc1ccc(OCc2ccccc2)cc1C(=O)CCc1ccccc1` (stereo not given), for which the IC50 is 110 nM. The value for `CC(C)N(CC(O)COc1ccccc1C(O)CCc1ccccc1)C(C)C` (stereo not given) was 1740 nM; that for `CC(=O)c1cccc(OCC(O)CN2CCN(c3ccc(F)cc3)CC2)c1` (stereo not given) was 11400 nM; that for `O=C(CCc1cccc2ccccc12)c1ccccc1OCC(O)CN1CCC(O)(c2ccccc2)CC1` (stereo not given) was 70 nM. The result for `O=C(CCc1ccccc1)c1cc(OCc2ccccc2)ccc1OCC(O)CN1CCCCC1` (stereo not given) reads 170 nM; that for `COc1ccccc1N1CCN(CC(O)c2oc3ccccc3c2CCc2ccccc2)CC1` (stereo not given), 880 nM; that for `O=C(CCc1ccccc1)c1ccccc1OCC(O)CNCc1ccccc1` (stereo not given), 760 nM.

Turning to `CC(=O)c1ccccc1OCC(O)CN1CCN(c2ccc(F)cc2)CC1` (stereo not given), the IC50 is 3840 nM. The result for `OC(COc1ccccc1C(O)CCc1ccccc1)CN1CCCCC1` (stereo not given) reads 1340 nM.

For `O=C(CCc1ccccc1)c1ccccc1OCC(O)CN1CCN(c2ccccc2)CC1` (stereo not given), the 50% inhibitory concentration (IC50) is 210 nM. Regarding `CCCNCC(O)COc1ccccc1C(=O)CCc1ccccc1` (stereo not given) [PROPAFENONE], the IC50 was 1080 nM.

Turning to `CC(=O)c1cccc(OCC(O)CN2CCOCC2)c1` (stereo not given), the half-maximal inhibitory concentration (IC50) is 118000 nM. The result for `O=C(CCc1ccccc1)c1ccccc1OCC(O)CN1CCC(O)(c2ccccc2)CC1` (stereo not given) reads 70 nM; that for `O=C(CCc1ccccc1)c1ccccc1OCC(O)CN1CCCC1` (stereo not given), 1820 nM. The value for `COC(=O)c1ccc(NCC(O)COc2ccccc2C(=O)CCc2ccccc2)cc1` (stereo not given) was 2530 nM; that for `O=C(CCc1ccccc1)c1ccccc1OCC(O)CNC(c1ccccc1)c1ccccc1` (stereo not given) was 1020 nM; that for `COc1ccccc1N1CCN(CC(O)COc2ccccc2C(=O)CCc2ccccc2)CC1` (stereo not given) was 110 nM. The result for `O=C(CCc1ccccc1)c1cc(OCc2ccccc2)ccc1OCC(O)CN1CCN(Cc2ccccc2)CC1` (stereo not given) reads 120 nM; that for `O=C(CCc1ccccc1)c1ccccc1OCC(O)CNC1CCCCC1` (stereo not given), 340 nM; that for `CC(C)N(CC(O)COc1ccc(O)cc1C(=O)CCc1ccccc1)C(C)C` (stereo not given), 1040 nM. As to `CC(=O)c1cccc(OCC(O)CN2CCCCC2)c1` (stereo not given), the IC50 worked out at 9070 nM. The value for `CC(C)NCCc1oc2ccccc2c1CCc1ccccc1` was 20200 nM; that for `O=C(CCc1cccc2ccccc12)c1ccccc1OCC(O)CN1CCOCC1` (stereo not given) was 680 nM; that for `CC(=O)c1ccc(OCC(O)CN2CCCCC2)cc1` (stereo not given) was 75900 nM. `COC(CCc1ccccc1)c1ccccc1OCC(O)CN(C(C)C)C(C)C` (stereo not given): the concentration for half-maximal inhibition (IC50) stood at 660 nM. The result for `CC(C)N(CC(O)COc1ccccc1C(=O)CCc1ccccc1)C(C)C` (stereo not given) reads 310 nM; that for `CC(C)N(CC(O)COc1ccc(C(=O)CCc2ccccc2)cc1)C(C)C` (stereo not given), 920 nM.

Consider `CCC(=O)c1ccccc1OCC(O)CN1CCOCC1` (stereo not given), for which the IC50 was determined as 207000 nM. The value for `COC(CCc1ccccc1)c1ccccc1OCC(O)CN1CCCCC1` (stereo not given) was 770 nM; that for `CCCNCC(O)COc1ccc(O)cc1C(=O)CCc1ccccc1` (stereo not given) [5-HYDROXY PROPAFENONE] was 3020 nM. The value for `O=C(CCc1ccccc1)c1ccc(OCC(O)CN2CCCCC2)cc1` (stereo not given) was 1360 nM. On to `COC(CCc1ccccc1)c1ccccc1OCC(O)CN1CCOCC1` (stereo not given), for which the concentration for half-maximal inhibition (IC50) worked out at 1800 nM. The value for `O=C(CCc1ccccc1)c1ccccc1OCC(O)CNc1ccccc1` (stereo not given) was 6470 nM. In the case of `O=C(CCc1cccc2ccccc12)c1ccccc1OCC(O)CN1CCCCC1` (stereo not given), the IC50 was 170 nM.

In the case of `CC(C)N(CC(O)COc1ccccc1C(=O)CCc1cccc2ccccc12)C(C)C` (stereo not given), the half-inhibitory concentration (IC50) turned out to be 540 nM. The value for `CC(=O)c1ccccc1OCC(O)CN1CCC(O)(c2ccccc2)CC1` (stereo not given) was 2830 nM.

`COc1cccc(N2CCN(CC(O)COc3ccccc3C(=O)CCc3ccccc3)CC2)c1` (stereo not given): the IC50 was 120 nM. The value for `O=C(c1ccccc1)c1ccccc1OCC(O)CN1CCC(O)(c2ccccc2)CC1` (stereo not given) was 190 nM; that for `CCCNCC(O)c1oc2ccccc2c1CC` (stereo not given) was 439000 nM; that for `O=C(CCc1ccccc1)c1ccccc1OCC(O)CNCC(c1ccccc1)c1ccccc1` (stereo not given) was 90 nM.

For `O=C(CCc1ccccc1)c1ccc(OCC(O)CN2CCN(c3ccc(F)cc3)CC2)cc1` (stereo not given), the half-maximal inhibitory concentration (IC50) is 2530 nM.

Turning to `O=C(CCc1ccccc1)c1cccc(OCC(O)CN2CCCCC2)c1` (stereo not given), the IC50 turned out to be 390 nM.

For `CC(C)N(CC(O)COc1ccc(OCc2ccccc2)cc1C(=O)CCc1ccccc1)C(C)C` (stereo not given), the half-maximal inhibitory concentration (IC50) turned out to be 80 nM. The result for `COc1ccccc1N1CCN(CC(=O)c2oc3ccccc3c2CCc2ccccc2)CC1` reads 16600 nM; that for `O=C(CCc1ccccc1)c1ccc(OCC(O)CN2CCOCC2)cc1` (stereo not given), 6860 nM.
